From the supplement of paper PMC10307832

Assays:
Test in all cases: relative viability (nuclei count vs DMSO), 5 days (fraction); higher = more cells survive
Seliciclib + Palbociclib = compound: CC[C@H](CO)Nc1nc(NCc2ccccc2)c2ncn(C(C)C)c2n1 [Seliciclib] + CC(=O)c1c(C)c2cnc(Nc3ccc(N4CCNCC4)cn3)nc2n(C2CCCC2)c1=O [Palbociclib] (partner 0.5 µM)
Method in brief: (§1)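 Each reported value is a median over duplicate plates. It expresses relative viability: treated-well nuclei count divided by vehicle-well nuclei count. Lung cancer cell lines in 1536-well plates were dosed by pin tool a day after seeding, alone with one drug or with a fixed anchor-drug dose plus five library-drug doses (not always all listed) in √10 steps, and nuclei were counted after 5 days.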

Seliciclib + Alpelisib = compound: CC[C@H](CO)Nc1nc(NCc2ccccc2)c2ncn(C(C)C)c2n1 [Seliciclib] + Cc1nc(NC(=O)N2CCC[C@H]2C(N)=O)sc1-c1ccnc(C(C)(C)C(F)(F)F)c1 [Alpelisib] (partner 2 µM)
Method in brief: as §1

Seliciclib + Pemetrexed = compound: CC[C@H](CO)Nc1nc(NCc2ccccc2)c2ncn(C(C)C)c2n1 [Seliciclib] + Nc1nc2[nH]cc(CCc3ccc(C(=O)N[C@@H](CCC(=O)O)C(=O)O)cc3)c2c(=O)[nH]1 [Pemetrexed] (partner 0.2 µM)
Method in brief: as §1

Seliciclib + Olaparib = compound: CC[C@H](CO)Nc1nc(NCc2ccccc2)c2ncn(C(C)C)c2n1 [Seliciclib] + O=C(c1cc(Cc2n[nH]c(=O)c3ccccc23)ccc1F)N1CCN(C(=O)C2CC2)CC1 [Olaparib] (partner 8 µM)
Method in brief: as §1

Cell Line	relative viability (Seliciclib + Palbociclib; first compound 0.08 µM)	relative viability (Seliciclib + Palbociclib; first compound 0.253 µM)	relative viability (Seliciclib + Palbociclib; first compound 0.8 µM)	relative viability (Seliciclib + Palbociclib; first compound 2.53 µM)	relative viability (Seliciclib + Palbociclib; first compound 8 µM)	relative viability (Seliciclib + Alpelisib; first compound 0.08 µM)	relative viability (Seliciclib + Alpelisib; first compound 0.253 µM)	relative viability (Seliciclib + Alpelisib; first compound 0.8 µM)	relative viability (Seliciclib + Alpelisib; first compound 2.53 µM)	relative viability (Seliciclib + Alpelisib; first compound 8 µM)	relative viability (Seliciclib + Pemetrexed; first compound 0.08 µM)	relative viability (Seliciclib + Pemetrexed; first compound 0.253 µM)	relative viability (Seliciclib + Pemetrexed; first compound 0.8 µM)	relative viability (Seliciclib + Pemetrexed; first compound 2.53 µM)	relative viability (Seliciclib + Pemetrexed; first compound 8 µM)	relative viability (Seliciclib + Olaparib; first compound 0.08 µM)	relative viability (Seliciclib + Olaparib; first compound 0.253 µM)	relative viability (Seliciclib + Olaparib; first compound 0.8 µM)	relative viability (Seliciclib + Olaparib; first compound 2.53 µM)	relative viability (Seliciclib + Olaparib; first compound 8 µM)
LXF-289	0.561	0.677	0.59	0.543	0.501	1.01	1.09	1.02	1.02	0.891	0.883	1.04	0.81	0.932	0.842	1.06	1.12	1.03	1.04	0.772
NCI-H23	0.548	0.49	0.416	0.335	0.258	0.612	0.447	0.603	0.504	0.562	0.715	0.72	0.619	0.337	0.489	0.346	0.31	0.377	0.269	0.262
NCI-H322M	0.472	0.538	0.467	0.428	0.431	0.87	0.876	0.692	0.822	0.73	0.615	0.716	0.564	0.636	0.619	0.722	0.969	0.561	0.758	0.749
NCI-H358	0.13	0.167	0.133	0.105	0.107	0.789	0.887	0.913	0.741	0.444	0.17	0.178	0.167	0.159	0.169	0.588	0.595	0.546	0.561	0.346
NCI-H441	0.199	0.217	0.203	0.144	0.14	0.631	0.584	0.776	0.754	0.51	0.232	0.246	0.228	0.249	0.276	0.525	0.451	0.562	0.466	0.448
NCI-H460	0.203	0.186	0.169	0.117	0.0761	0.426	0.485	0.381	0.538	0.385	0.0625	0.0553	0.0625	0.0593	0.0753	0.496	0.517	0.472	0.458	0.359
NCI-H520	0.237	0.187	0.17	0.189	0.203	0.897	0.682	0.831	1.02	0.931	0.535	0.627	0.657	0.654	0.619	0.327	0.396	0.318	0.346	0.388
NCI-H647	0.321	0.188	0.395	0.296	0.216	0.952	1.1	0.978	1.15	0.618	0.2	0.151	0.174	0.179	0.196	0.526	0.433	0.512	0.649	0.313
NCI-H650	0.357	0.264	0.402	0.248	0.234	1.05	1.02	1.35		0.872	1.06	0.905	1.07	0.73	0.825	0.354	0.368	0.417	0.305	0.37
NCI-H661	0.396	0.401	0.359	0.286	0.292	0.736	0.781	0.653	0.437	0.5	0.839	1.03	0.921	0.82	0.806	0.674	0.768	0.695	0.724	0.674
NCI-H838	0.216	0.257	0.211	0.169	0.197	0.971	0.853	0.884	1.14	0.94	0.246	0.28	0.242	0.263	0.239	0.729	0.765	0.762	0.773	0.635
NCI-H1355	0.374	0.331	0.364	0.371	0.341	0.784	0.754	0.822	0.919	0.831	0.945	0.922	1.02	1.02	0.962	0.715	0.697	0.727	0.779	0.635
NCI-H1395	0.596	0.49	0.604		0.523	1.08	0.843	1.04	1.07	1.02	0.932	0.757	0.854		0.756	0.459	0.422	0.43		0.448
NCI-H1437	0.323	0.324	0.298	0.221	0.223	0.919	0.855	1.02	1.02	0.935	0.32	0.358	0.333	0.315	0.306	0.641	0.665	0.595	0.607	0.431
NCI-H1651	0.51	0.512	0.502	0.436	0.411	0.93	0.839	0.833	0.81	0.804	0.518	0.591	0.61	0.388	0.561	0.195	0.182	0.201	0.188	0.169
NCI-H1666	0.635	0.633	0.666	0.603	0.5	1.04	0.985	0.846	0.923	0.516	0.918	0.959	0.824	0.821	0.815	0.737	0.82	0.725	0.752	0.604
